{"source": "patent US20140172118A1", "about": "“Bioactive Compositions, Bioactive Eluting Devices and Methods of Use Thereof” (Cook Medical Technologies LLC, priority 2012, published 2014)", "experiment": "Ex-vivo delivery of doxazosin mesylate from coated polyurethane tubing to ureter tissue", "format": "in vitro ADME", "conditions": "7 cm coated 6 Fr. polyurethane tubing in 9 cm porcine ureter, approximately 18 hours at 37° C., PBS pH=7.4; HPLC; compared with coating with no triacetin or DMSO; FIG. 6", "description": "However, the increase in the amount bioactive delivered through a vessel wall may be characterized in an ex vivo assay in which the composition or implantable device is placed in a section of the appropriate vessel and incubated in a buffer solution for a fixed time. In one such assay, a device, for example, is placed in a section of porcine ureter, which is hydrated in a Phosphate Buffered Saline buffer. The ureter is incubated in a closed container for a fixed time, for example 24 hrs at 37 deg. C. […] The amount of bioactive present in the ureter and in the device is determined using, for example, an appropriate HPLC method. […]\nA 7 cm section of each of the samples of tubing prepared as described in Example 1 is inserted into 9 cm of porcine ureter and incubated for approximately 18 hours at 37° C. in a screw capped glass vial hydrated with 0.25 ml of PBS (pH=7.4). […] The amount of doxazosin mesylate present in the tubing and in the ureter is determined as described in example 3.\nEach of the samples from Example 2 is tested to determine the amount of doxazosin mesylate delivered to the ureter tissue. Doxazosin mesylate is extracted from each tube and ureter and the percentage that is delivered to each ureter is determined as follows. […] The amount of doxazosin mesylate in each of the ureter and the tubing is measured using HPLC."}
{"smiles": "CC(=O)OCC(COC(C)=O)OC(C)=O", "note": "[triacetin]", "values": [{"measurement": "percentage of doxazosin mesylate present in the ureter (amount delivered to ureter tissue)", "result": "increase the amount of doxazosin mesylate delivered"}]}
{"smiles": "C[S+](C)[O-]", "note": "[DMSO, dimethyl sulfoxide]", "values": [{"measurement": "percentage of doxazosin mesylate present in the ureter (amount delivered to ureter tissue)", "result": "increase the amount of doxazosin mesylate delivered"}]}
